Data: BigSolDB 2.1

O=C(O)C=CC(=O)O.OCCOCCN1CCN(C2=Nc3ccccc3Sc3ccccc32)CC1.OCCOCCN1CCN(C2=Nc3ccccc3Sc3ccccc32)CC1
solubility (mole fraction)
Details	in DMF	in acetone	in ethanol	in ethyl acetate	in isobutanol	in isopropanol	in methanol	in n-butanol	in water
283.15 K	0.00309	0.000106	0.000191	8.13e-05	6.85e-05	0.000107	0.000388	0.000154	4.98e-05
288.15 K	0.00369	0.000146	0.000244	9.87e-05	8.53e-05	0.000126	0.000453	0.000216	5.57e-05
293.15 K	0.00419	0.000178	0.000325	0.000142	0.000119	0.000168	0.000545	0.000292	6.73e-05
298.15 K	0.00491	0.000217	0.000408	0.000176	0.000162	0.000203	0.000696	0.000393	7.39e-05
303.15 K	0.00598	0.000251	0.000502	0.000218	0.000204	0.000251	0.000879	0.000502	7.99e-05
308.15 K	0.00684	0.000294	0.000636	0.000255	0.000251	0.000289	0.00121	0.000619	9.31e-05
313.15 K	0.0084	0.000345	0.000838	0.000306	0.000307	0.00036	0.00163	0.000792	0.000108
318.15 K	0.0102	0.000395	0.0011	0.000365	0.000395	0.000494	0.00202	0.000988	0.000131
323.15 K	0.0123	0.000475	0.00135	0.000411	0.000481	0.000716	0.00245	0.00118	0.000162
